Several values for one entry are separate records, joined by “and”; a condition that tells them apart may be missing. Identical values can stand only once. Inconclusive results and toxic doses are left out. Cut-off read from the data, not from the text of the source: active = T/C of 150% or more; inactive = T/C below 125%.
System: L1210 leukemia ip in BDF1 mice, survival T/C
Assay: NCI In Vivo Anticancer Drug Screen. Data for tumor model L1210 Leukemia (intraperitoneal) in B6D2F1 (BDF1) mice
Settings: endpoint: mean survival time, higher = longer survival
Outline: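 Each compound was tested against a transplantable tumor grown in mice. The endpoint was survival, with treated animals benchmarked against vehicle controls as a simple ratio.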

[1] = dose: 100.0 mg/kg/injection, schedule: Q01DX001 (ip), vehicle: saline
[2] = dose: 200.0 mg/kg/injection, schedule: Q01DX001 (ip), vehicle: saline
[3] = dose: 400.0 mg/kg/injection, schedule: Q01DX001 (ip), vehicle: saline
[4] = dose: 100.0 mg/kg/injection, schedule: Q04DX002 (ip), vehicle: Klucel (hydroxypropylcellulose) (HPC)
[5] = dose: 200.0 mg/kg/injection, schedule: Q04DX002 (ip), vehicle: Klucel (hydroxypropylcellulose) (HPC)
[6] = dose: 400.0 mg/kg/injection, schedule: Q04DX002 (ip), vehicle: Klucel (hydroxypropylcellulose) (HPC)
[7] = dose: 100.0 mg/kg/injection, schedule: Q04DX003 (ip), vehicle: Klucel (hydroxypropylcellulose) (HPC)
[8] = dose: 200.0 mg/kg/injection, schedule: Q04DX003 (ip), vehicle: Klucel (hydroxypropylcellulose) (HPC)
[9] = dose: 400.0 mg/kg/injection, schedule: Q04DX003 (ip), vehicle: Klucel (hydroxypropylcellulose) (HPC)
[10] = dose: 100.0 mg/kg/injection, schedule: Q01DX009 (ip), vehicle: Klucel (hydroxypropylcellulose) (HPC)
[11] = dose: 200.0 mg/kg/injection, schedule: Q01DX009 (ip), vehicle: Klucel (hydroxypropylcellulose) (HPC)
[12] = dose: 400.0 mg/kg/injection, schedule: Q01DX009 (ip), vehicle: Klucel (hydroxypropylcellulose) (HPC)
[13] = dose: 100.0 mg/kg/injection, schedule: Q01DX009 (ip), vehicle: saline with Tween-80

Measured: T/C

CCOC(=O)c1cn(C2OC(COC(=O)c3ccccc3)C(OC(=O)c3ccccc3)C2OC(=O)c2ccccc2)c(=O)nc1Nc1ccccc1Cl (stereo unspecified)
inactive: dose: 25.0 mg/kg/injection, schedule: Q01DX005 (ip), vehicle: saline 104 % of control | dose: 50.0 mg/kg/injection, schedule: Q01DX005 (ip), vehicle: saline 105 % of control | dose: 75.0 mg/kg/injection, schedule: Q01DX005 (ip), vehicle: saline 105 % of control | dose: 100.0 mg/kg/injection, schedule: Q01DX005 (ip), vehicle: saline 123 % of control | dose: 200.0 mg/kg/injection, schedule: Q01DX005 (ip), vehicle: saline 92 % of control

CCCCN(CCCC)CC(O)c1cc(-c2ccc(Cl)c(Cl)c2)nc2c(Cl)cc(Cl)cc12 (stereo unspecified)
inactive: [1] 103 % of control | [2] 94 % of control | [3] 94 % of control

CCOC(=O)CNc1cccc(C)c1C
inactive: [4] 100 % of control | [5] 102 % of control | [6] 100 % of control

CC1(C)CC[N+]1(C)Cc1ccccc1 (stereo unspecified)
inactive: dose: 6.25 mg/kg/injection, schedule: Q01DX009 (ip), vehicle: saline 95 % of control | dose: 6.25 mg/kg/injection, schedule: Q04DX003 (ip), vehicle: saline 90 % of control | dose: 12.0 mg/kg/injection, schedule: Q01DX001 (ip), vehicle: saline 102 % of control | dose: 12.5 mg/kg/injection, schedule: Q01DX009 (ip), vehicle: saline 109 % of control | dose: 12.5 mg/kg/injection, schedule: Q04DX003 (ip), vehicle: saline 101 % of control | dose: 25.0 mg/kg/injection, schedule: Q01DX001 (ip), vehicle: saline 97 % of control | dose: 25.0 mg/kg/injection, schedule: Q01DX009 (ip), vehicle: saline 97 % of control | dose: 25.0 mg/kg/injection, schedule: Q04DX003 (ip), vehicle: saline 91 % of control

CCCCNC(=O)Nc1ccc(C(=O)O)c(O)c1
inactive: [7] 100 % of control | [8] 94 % of control | [9] 93 % of control

CCOP(=O)(OCC)OCCSCC
inactive: dose: 75.0 mg/kg/injection, schedule: Q01DX001 (ip), vehicle: saline 103 % of control | dose: 150.0 mg/kg/injection, schedule: Q01DX001 (ip), vehicle: saline 102 % of control

CS(=O)(=O)n1c(CCl)nc2ccccc21
inactive: dose: 50.0 mg/kg/injection, schedule: Q01DX001 (ip), vehicle: saline 96 % of control | [1] 104 % of control | [2] 102 % of control | [3] 102 % of control

O=C(Nc1cccc(F)c1)Nc1ccc2ccccc2c1
inactive: [10] 105 % of control | [11] 97 % of control | [12] 97 % of control

CN(C)CC1C(O)C2CCN1CC2 (stereo unspecified)
inactive: dose: 100.0 mg/kg/injection, schedule: Q04DX003 (ip), vehicle: saline 103 % of control | dose: 200.0 mg/kg/injection, schedule: Q04DX003 (ip), vehicle: saline 103 % of control

CC(C)=CCOC(N)=O
inactive: [7] 95 % of control | [8] 104 % of control | [9] 109 % of control

CCCCCCCCCCCCCCCCc1ccc(O)cc1O
inactive: dose: 12.5 mg/kg/injection, schedule: Q04DX003 (ip), vehicle: Klucel (hydroxypropylcellulose) (HPC) 103 % of control | dose: 25.0 mg/kg/injection, schedule: Q01DX009 (ip), vehicle: saline with Tween-80 100 % of control | dose: 25.0 mg/kg/injection, schedule: Q04DX003 (ip), vehicle: Klucel (hydroxypropylcellulose) (HPC) 95 % of control | dose: 50.0 mg/kg/injection, schedule: Q01DX009 (ip), vehicle: saline with Tween-80 105 % of control | dose: 50.0 mg/kg/injection, schedule: Q04DX003 (ip), vehicle: Klucel (hydroxypropylcellulose) (HPC) 95 % of control | [13] 95 % of control | dose: 100.0 mg/kg/injection, schedule: Q04DX003 (ip), vehicle: saline with Tween-80 94 % of control

CCOP(=O)(OCC)Oc1c(Cl)c(Cl)c(O)c(Cl)c1Cl
inactive: dose: 100.0 mg/kg/injection, schedule: Q04DX002 (ip), vehicle: saline with Tween-80 91 % of control | dose: 200.0 mg/kg/injection, schedule: Q04DX002 (ip), vehicle: saline with Tween-80 100 % of control

O=C(OCC(COC(=O)c1ccccc1)(COC(=O)c1ccccc1)[N+](=O)[O-])c1ccccc1
inactive: [7] 92 % of control | [8] 92 % of control | [9] 94 % of control

CN=C(N)NN
inactive: dose: 30.0 mg/kg/injection, schedule: Q01DX Z (ip), vehicle: methylcellulose (MC) 102 % of control | dose: 60.0 mg/kg/injection, schedule: Q01DX Z (ip), vehicle: methylcellulose (MC) 97 % of control | dose: 120.0 mg/kg/injection, schedule: Q01DX Z (ip), vehicle: methylcellulose (MC) 105 % of control | dose: 175.0 mg/kg/injection, schedule: Q01DX001 (ip), vehicle: saline 105 % of control | dose: 240.0 mg/kg/injection, schedule: Q01DX Z (ip), vehicle: methylcellulose (MC) 98 % of control | dose: 265.0 mg/kg/injection, schedule: Q01DX001 (ip), vehicle: saline 104 % of control | dose: 375.0 mg/kg/injection, schedule: Q01DX Z (ip), vehicle: methylcellulose (MC) 111 % of control | [3] 98 % of control | dose: 480.0 mg/kg/injection, schedule: Q01DX Z (ip), vehicle: methylcellulose (MC) 107 % of control | dose: 600.0 mg/kg/injection, schedule: Q01DX001 (ip), vehicle: saline 104 % of control

CCCCN=C(NCCCC)OCCCC
inactive: dose: 11.1 mg/kg/injection, schedule: Q01DX Z (ip), vehicle: saline 104 % of control | dose: 16.6 mg/kg/injection, schedule: Q01DX Z (ip), vehicle: saline 100 % of control

COC(=O)CC(O)(CC(=O)OC)C(=O)OC
inactive: [10] 93 % of control | [11] 104 % of control | [12] 93 % of control

N#CC(CC(=O)OCc1ccccc1)NC(=O)OCc1ccccc1 (stereo unspecified)
inactive: [13] 92 % of control | dose: 200.0 mg/kg/injection, schedule: Q01DX009 (ip), vehicle: saline with Tween-80 89 % of control | dose: 400.0 mg/kg/injection, schedule: Q01DX009 (ip), vehicle: saline with Tween-80 97 % of control

C#CCCCCCCCCCC(=O)OC
inactive: [10] 102 % of control | [7] 103 % of control | [11] 102 % of control | [8] 95 % of control | [12] 104 % of control | [9] 98 % of control

CCOc1ccc(NC(C)=O)c(OC(C)=O)c1
inactive: dose: 75.0 mg/kg/injection, schedule: Q01DX001 (ip), vehicle: carboxymethylcellulose (CMC) 95 % of control and 100 % of control | dose: 150.0 mg/kg/injection, schedule: Q01DX001 (ip), vehicle: carboxymethylcellulose (CMC) 100 % of control | dose: 300.0 mg/kg/injection, schedule: Q01DX001 (ip), vehicle: carboxymethylcellulose (CMC) 93 % of control

CC(C(O)c1ccc(Cl)cc1)C(O)(C(F)(F)F)C(F)(F)F (stereo unspecified)
inactive: dose: 75.0 mg/kg/injection, schedule: Q01DX009 (ip), vehicle: saline with Tween-80 100 % of control | dose: 150.0 mg/kg/injection, schedule: Q01DX009 (ip), vehicle: saline with Tween-80 110 % of control | dose: 300.0 mg/kg/injection, schedule: Q01DX009 (ip), vehicle: saline with Tween-80 101 % of control

CCc1nc(NS(=O)(=O)c2ccc(N)cc2)nc(-c2ccccc2)c1-c1ccccc1O
inactive: [4] 87 % of control | [5] 91 % of control | [6] 95 % of control

From PubChem BioAssay AID248 (DTP/NCI, 2004)
